We go through 9 compounds from patent publication US9695463B2, “DNA 5-methyl cytosine demethylation activity of vertebrate DNA methyltransferases” (Academia Sinica, priority 2012, dated 2017).

One test deals with T1, recombinant DNMT3B (Mus musculus, UniProt O88509).
T1 construct: purchased BPS Bioscience; host or cells: recombinant baculovirus-infected Sf9 insect cells
As to the kind of experiment: Effect of Ca2+ and DTT on the C to 5-mC methylation reaction of recombinant DNMT3B (hydrolysis-TLC assay). Particulars: 40 nM recombinant DNMT3B, unmethylated pMR1-8, 160 μM SAM, 1 mM CaCl2 or 5 mM DTT, 37°C, 4 h. The test is classed as biochemical. As for the experimental part:
(§1) FIGS. 3A-B show the effects of a reducing condition and SAM on the DNA demethylation and methylation activities of DNMT3B. […] After incubation at 37° C. for 4 h, the DNA products were analyzed by the hydrolysis-TLC assay. The results are quantitatively presented in the histogram. […] After incubation at 37° C. for 4 h, the extents of C methylation of the DNAs from the different reactions were determined by hydrolysis-TLC assay and quantitatively compared in the histogram. Error bars indicate S.D.
Methylation in vitro of unmodified pMR1-8 plasmid DNA by the DNMTs were carried out and analyzed by the hydrolysis-TLC assay. When needed, 1 mM CaCl2 or 5 mM DTT was also included in the reaction mixture.

The subject of test [1] is DNA demethylation activity of porcine sperm nuclear extract. The experiment in a line: In vitro DNA demethylation by porcine sperm nuclear extract (restriction digestion-PCR assay). Conditions: for effect on the in vitro DNA demethylation activity of the sperm nuclear extract: 10 mM CaCl2, increasing concentrations of inhibitor (APE-i to 1 mM, 3-AB to 50 mM, THU to 1 mM). The test is classed as biochemical. The method, then:
The nuclear extracts were prepared from the porcine sperms and 293T cells, respectively, by a modified method. Briefly, the porcine semen was washed three times by PBS buffer and the sperm pellet isolated with FICOLL®. The pellet was resuspended in a hypotonic buffer (10 mM Tris-HCl, pH7.4, 10 mM NaCl, 10 mM EDTA and EDTA-free protease inhibitors) on ice for 15 minutes. The resuspended sperms were passed through a G21 needle 10 times and then centrifuged at 13,200 rpm at 4° C. for 10 min. The supernatant was removed and the pellet of the nuclei was resuspended in a resuspension buffer (10 mM Tris-HCl, pH7.4, 10 mM NaCl, 1.5 mM, MgCl2 and EDTA-free protease inhibitors), and an equal volume of 1M NaCl was added for 30 min incubation on ice.

Another test addresses T2, recombinant mouse DNMT3B (Mus musculus, UniProt O88509).
T2 construct: purchased BPS Bioscience; host or cells: recombinant baculovirus-infected Sf9 insect cells
As to the kind of experiment: Effect of Ca2+, DTT, SAM and H2O2 on the DNA demethylation activity of recombinant DNMT3B (hydrolysis-TLC assay). It is filed as biochemical. As for the experimental part:
M, mock control without incubation.
as §1
Rx, reactions. […] M, mock control without incubation.

The test system of test [2] is 5-mC-containing double-stranded DNA substrate. The experiment in a line: 5-mC to C conversion by 293T nuclear extracts with exogenously expressed mouse DNMTs (hydrolysis-TLC assay). Particulars: 293T nuclear extract with exogenously expressed mouse enzyme, buffer B, 10 mM Ca2+. The test is classed as biochemical.
Test [3] relates to 5-mC-containing DNA substrate. The experiment in a line: 5-mC to C conversion by recombinant DNMTs (hydrolysis-TLC assay). Conditions: 40 nM recombinant DNMT3B, 1 mM CaCl2, 37°C, 2 h (reaction 1).

Turning to `O[C@H](CS)[C@H](O)CS` (racemic) [DTT, dithiothreitol], the “effect on the 5-C methylation reaction of DNMTs (in words)” value on recombinant DNMT3B is recorded as “nor was it affected”. For the compound `NC(=O)c1cccc(N)c1` [3-aminobenzamide], in test [1], the “effect on the in vitro DNA demethylation activity of the sperm nuclear extract” value is reported as “little effect”. Same read-out and setting: then `O=C(O)c1cc2cccc([N+](=O)[O-])c2[nH]1` [CRT0044876], with “little effect”. For `[Ca+2].[Cl-].[Cl-]` [Ca^2+, CaCl2], the “reduction of the extent of DNA methylation” value in test [1] (1-10 mM Ca2+, fully methylated pMR1-8 plasmid, 37°C, 2 h) is on record as 20-50%. Moreover, at recombinant DNMT3B, the “effect on the 5-C methylation reaction of DNMTs (in words)” value is “did not require”.

For `OO` [H2O2], the “effect on the enzyme activity of DNMT3B after SAM (in words)” value at recombinant mouse DNMT3B (1 mM H2O2 added after reaction 2, another 2 h (reaction 3)) is recorded as “led to the switch of the enzyme activity of DNMT3B from methylation to demethylation again”. Take `C[S+](CC[C@H](N)C(=O)O)C[C@H]1O[C@@H](n2cnc3c(N)ncnc32)[C@H](O)[C@@H]1O` (some centres unmarked) [SAM, S-adenosylmethionine]: at recombinant mouse DNMT3B (160 μM SAM added after reaction 1, continued 1 h incubation (reaction 2)), the “C converted back to 5-mC” value is recorded as “more than 60%”. Consider `O=C1NC(O)CCN1[C@@H]1O[C@H](CO)[C@@H](O)[C@H]1O` (some centres unmarked) [tetrahydrouridine], for which, in test [1], the “effect on the in vitro DNA demethylation activity of the sperm nuclear extract” value is on record as “little effect”.

With “DNMT1: mouse DNA methyltransferase 1 exogenously expressed in 293T nuclear extract (SEQ ID NO: 5)”, in test [2], the “5-mC residues on the DNA substrate from which the 5-methyl group was removed” value is on record as “approximately 30%”. Turning to “DNMT3B: mouse DNA methyltransferase 3B, expressed in 293T nuclear extract or recombinant from BPS Bioscience (SEQ ID NO: 9)”, the “5-mC residues on the DNA substrate from which the 5-methyl group was removed” value in test [2] is listed as “approximately 30%”. In addition, the “5-mC on the DNA substrate demethylated at the end of the first reaction” value in test [3] is on record as “approximately 60%”.
